# From US20060069132A1, “Azolecarboxamide herbicides” (priority 2004, published 2006)
# Tests used:
# large crabgrass = experiment: Test B pre-/postemergence herbicide test; assay type: in vivo, Digitaria sanguinalis; settings: for Crabgrass, Large plant response rating: postemergence, scale 0 (no effect) to 100 (complete control)
# Outline: (§1)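 Greenhouse pot assay with simultaneous preemergence (treated seed) and postemergence (2–18 cm seedlings) applications of surfactant-containing, non-phytotoxic solvent formulations. Response scored visually 13–15 days later on a 0–100 scale, 100 meaning complete control.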
# morningglory = experiment: Test B pre-/postemergence herbicide test; assay type: in vivo, Ipomoea coccinea; settings: for Morningglory plant response rating: postemergence, scale 0 (no effect) to 100 (complete control)
# Outline: (§2)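 Plants compared with untreated controls 13–15 days post-treatment and given a visual 0–100 injury score. Applications: preemergence to seeds; postemergence at 1- to 4-leaf (2–18 cm); paddy species flooded, 2-leaf stage. Vehicle non-phytotoxic, surfactant included.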
# pigweed = experiment: Test B pre-/postemergence herbicide test; assay type: in vivo, Amaranthus retroflexus; settings: for Pigweed plant response rating: postemergence, scale 0 (no effect) to 100 (complete control)
# Outline: as §1
# corn = experiment: Test B pre-/postemergence herbicide test; assay type: in vivo, Zea mays; settings: for Corn plant response rating: postemergence, scale 0 (no effect) to 100 (complete control)
# Outline: as §1
# barnyardgrass [1] = experiment: Test B pre-/postemergence herbicide test; assay type: in vivo, Echinochloa crus-galli; settings: 0 = no effect, 100 = complete control, preemergence
# Outline: as §2
# [2] = system: small flower umbrella sedge; experiment: Test B flooded paddy test; assay type: in vivo, Cyperus difformis; settings: 1000 g ai/ha, scale 0 to 100 (0 no effect, 100 complete control)
# Outline: (§3)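 Formulated test chemicals went onto postemergence plants measuring 2 to 18 cm, at one to four leaves. For the paddy assay, species had reached two leaves. Scoring took place 13–15 days later by eye, relative to untreated plants, using 0 for no effect up to 100 for full control.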
# barnyardgrass [3] = experiment: Test B flooded paddy test; assay type: in vivo, Echinochloa crus-galli; settings: 1000 g ai/ha, scale 0 to 100 (0 no effect, 100 complete control)
# Outline: as §3
# rice [4] = experiment: Test B flooded paddy test; assay type: in vivo, Oryza sativa; settings: 1000 g ai/ha, scale 0 to 100 (0 no effect, 100 complete control)
# Outline: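 Greenhouse test; postemergence application to plants at 1–4 leaves (2–18 cm); paddy species at 2 leaves; evaluated visually vs controls at 13–15 days; scale 0–100 (100 = complete control).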
# wheat = experiment: Test B postemergence herbicide test; assay type: in vivo, Triticum aestivum; design: key to Wheat plant response rating: 0 = no effect, 100 = complete control; settings: postemergence, visual rating, scale 0 (no effect) to 100 (complete control)
# Outline: (§4)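 Visual ratings, 0 (no effect) to 100 (complete control), made versus controls after 13–15 d greenhouse. Paddy plants treated at 2-leaf stage; postemergence plants at 1- to 4-leaf stage, 2–18 cm tall.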
# velvetleaf = experiment: Test B pre-/postemergence herbicide test; assay type: in vivo, Abutilon theophrasti; settings: for Velvetleaf plant response rating: postemergence, scale 0 (no effect) to 100 (complete control)
# Outline: as §1
# rice [5] = experiment: Test B pre-/postemergence herbicide test; assay type: in vivo, Oryza sativa; settings: 0 = no effect, 100 = complete control, preemergence
# Outline: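 Species tested were Echinochloa crus-galli, Ipomoea coccinea, Xanthium strumarium and Oryza sativa, treated both before emergence and at the 1- to 4-leaf stage; rice and barnyardgrass were also tested under flooding at 2 leaves. Greenhouse incubation lasted 13–15 days before visual 0–100 scoring.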
# wild oat = experiment: Test B postemergence herbicide test; assay type: in vivo, Avena fatua; settings: postemergence, visual rating, scale 0 (no effect) to 100 (complete control)
# Outline: as §4
# blackgrass = experiment: Test B postemergence herbicide test; assay type: in vivo, Alopecurus myosuroides; settings: postemergence, visual rating, scale 0 (no effect) to 100 (complete control)
# Outline: as §3
# ducksalad = experiment: Test B flooded paddy test; assay type: in vivo, Heteranthera limosa; settings: 1000 g ai/ha, scale 0 to 100 (0 no effect, 100 complete control)
# Outline: as §3
# lambsquarters = experiment: Test B pre-/postemergence herbicide test; assay type: in vivo, Chenopodium album; settings: for Lambsquarters plant response rating: postemergence, scale 0 (no effect) to 100 (complete control)
# Outline: as §1
# giant foxtail = experiment: Test B pre-/postemergence herbicide test; assay type: in vivo, Setaria faberi; settings: for Foxtail, Giant plant response rating: postemergence, scale 0 (no effect) to 100 (complete control)
# Outline: as §1
# cocklebur = experiment: Test B pre-/postemergence herbicide test; assay type: in vivo, Xanthium strumarium; settings: for Cocklebur plant response rating: postemergence, scale 0 (no effect) to 100 (complete control)
# Outline: as §2
# Surinam grass = experiment: Test B pre-/postemergence herbicide test; assay type: in vivo, Urochloa decumbens; settings: for Surinam Grass plant response rating: postemergence, scale 0 (no effect) to 100 (complete control)
# Outline: as §1
# [6] = 125 g ai/ha, 0 = no effect, 100 = complete control, preemergence
# [7] = 500 g ai/ha, visual rating, 0 = no effect, 100 = complete control, preemergence
smiles,measurement,setting,value
CCNC(=O)c1ccnc(NC(=O)c2nn(C(C)(C)C)cc2CC)c1 [Compound 233],"Crabgrass, Large plant response rating (0 to 100 scale)",large crabgrass; [6],20
same,"Plant response rating, Crabgrass, Large",large crabgrass; [7],90
same,"Crabgrass, Large plant response rating","large crabgrass; 125 g ai/ha, visual rating",10
same,"Crabgrass, Large plant response rating","large crabgrass; 500 g ai/ha, visual rating",10
same,Morningglory plant response rating (0 to 100 scale),morningglory; [6],0
same,"Plant response rating, Morningglory",morningglory; [7],0
same,Morningglory plant response rating,"morningglory; 125 g ai/ha, visual rating",50
same,Morningglory plant response rating,"morningglory; 500 g ai/ha, visual rating",80
same,Pigweed plant response rating (0 to 100 scale),pigweed; [6],0
same,"Plant response rating, Pigweed",pigweed; [7],60
same,Pigweed plant response rating,"pigweed; 125 g ai/ha, visual rating",60
same,Pigweed plant response rating,"pigweed; 500 g ai/ha, visual rating",70
same,Corn plant response rating (0 to 100 scale),corn; [6],0
same,"Plant response rating, Corn",corn; [7],0
same,Corn plant response rating,"corn; 125 g ai/ha, visual rating",10
same,Corn plant response rating,"corn; 500 g ai/ha, visual rating",30
same,Barnyardgrass plant response rating (0 to 100 scale),barnyardgrass [1]; 125 g ai/ha,10
same,"Plant response rating, Barnyardgrass","barnyardgrass [1]; 500 g ai/ha, visual rating",10
same,"Sedge, Umbrella plant response rating",[2],80
same,Barnyardgrass plant response rating,barnyardgrass [3],0
same,Rice plant response rating,rice [4],30
same,Wheat plant response rating,wheat; 125 g ai/ha,0
same,Wheat plant response rating,wheat; 500 g ai/ha,10
same,Velvetleaf plant response rating (0 to 100 scale),velvetleaf; [6],10
same,"Plant response rating, Velvetleaf",velvetleaf; [7],10
same,Velvetleaf plant response rating,"velvetleaf; 125 g ai/ha, visual rating",30
same,Velvetleaf plant response rating,"velvetleaf; 500 g ai/ha, visual rating",50
same,Rice plant response rating (0 to 100 scale),rice [5]; 125 g ai/ha,0
same,"Plant response rating, Rice","rice [5]; 500 g ai/ha, visual rating",0
same,"Oat, Wild plant response rating",wild oat; 125 g ai/ha,0
same,"Oat, Wild plant response rating",wild oat; 500 g ai/ha,20
same,Blackgrass plant response rating,blackgrass; 125 g ai/ha,0
same,Blackgrass plant response rating,blackgrass; 500 g ai/ha,10
same,Ducksalad plant response rating,ducksalad,50
same,Lambsquarters plant response rating (0 to 100 scale),lambsquarters; [6],0
same,"Plant response rating, Lambsquarters",lambsquarters; [7],30
same,Lambsquarters plant response rating,"lambsquarters; 125 g ai/ha, visual rating",50
same,Lambsquarters plant response rating,"lambsquarters; 500 g ai/ha, visual rating",70
same,"Foxtail, Giant plant response rating (0 to 100 scale)",giant foxtail; [6],0
same,"Plant response rating, Foxtail, Giant",giant foxtail; [7],0
same,"Foxtail, Giant plant response rating","giant foxtail; 125 g ai/ha, visual rating",0
same,"Foxtail, Giant plant response rating","giant foxtail; 500 g ai/ha, visual rating",30
same,Cocklebur plant response rating (0 to 100 scale),cocklebur; [6],0
same,"Plant response rating, Cocklebur",cocklebur; [7],0
same,Cocklebur plant response rating,"cocklebur; 125 g ai/ha, visual rating",20
same,Cocklebur plant response rating,"cocklebur; 500 g ai/ha, visual rating",20
same,Surinam Grass plant response rating (0 to 100 scale),Surinam grass; [6],0
same,"Plant response rating, Surinam Grass",Surinam grass; [7],20
same,Surinam Grass plant response rating,"Surinam grass; 125 g ai/ha, visual rating",10
same,Surinam Grass plant response rating,"Surinam grass; 500 g ai/ha, visual rating",20
